Entries after “also recorded” stand apart in the source; their conditions may differ. Where two headings read alike, the source gives them in different places.
Experiments:
Gli1 transcription = assay: Sufu−/− mouse embryonic fibroblasts qRT-PCR; type: cell-based; conditions: for Transcriptional inhibition in the Sufu−/− cell line, in words: Gli1 and Ptch1
Excerpt: (§1) In light of EGM1's ability to halt Hh transcriptional activity at a node downstream of the negative regulator Sufu, and thus also downstream of Smo, we sought to confirm mode of action retention with our most promising analogs. Therefore, we employed Sufu−/− mouse embryonic fibroblasts (MEF) that display constitutively active transcription of Hh target genes Gli1 and Ptch1 and monitored the ability of our optimized analogs to repress signaling via quantitative reverse transcription-PCR (qRT-PCR). […] We then evaluated improved analogs from multiple structural classes including those from Table 1 with cyclohexylthiophene cores as well as from Table 13 with structurally distinct core modifications.
(§2) Sufu^−/− cells were seeded into 12-well plates at a density of 100,000 cells/well in D10 FBS and incubated for 24 hours. Small molecule solutions were prepared by adding the desired amount of compound from 10 mM DMSO stock to D0.5 FBS. Negative control was prepared by adding an equi-volume amount of DMSO to D0.5 FBS as compared to small molecule treated conditions. Cell plating medium was aspirated and replaced with 1 mL of prepared small molecule-containing media, and plates were incubated for 24 hours before proceeding to RNA isolation.
(§3) Cells were washed 1× with 1× phosphate-buffered saline (PBS) then RNA was isolated using the Qiagen RNeasy Mini Kit (Qiagen, Germantown, Md., USA) according to the manufacturer's protocol, eluting RNA from the spin column with 30 μL of RNase-free water. RNA was placed on ice and immediately subjected to reverse transcription. Remaining RNA was stored at −80° C.
(§4) Reverse transcription polymerase chain reaction (RT-PCR) was performed with the Applied Biosystems High Capacity cDNA Reverse Transcription Kit (ThermoFisher Scientific, Waltham, Mass., USA) using an Eppendorf MasterCycler. Each 20 μL reaction contained 0.5 μg of total RNA, 2 μL of 10×RT Buffer, 0.8 μL of 25×dNTP Mix (100 mM), 2 μL of 10×RT Random Primers, 1 μL of MultiScribe® Reverse Transcriptase (50 U/μL), 1 μL of Recombinant RNasin® Ribonuclease Inhibitor (40 U/μL) (Promega, Madison, Wis., USA), and nuclease-free water. Reverse transcription was performed with the following program: 25° C. for 10 minutes, 37° C. for 120 minutes, and 85° C. for 5 minutes. The cDNA was subjected to quantitative real-time PCR (Q-PCR) or stored at −20° C.
(§5) Quantitative real-time PCR was performed on an Applied Biosystems 7900 HT Fast Real Time PCR System in 384-well format. Each cDNA sample was assayed in triplicate with both probe of interest and control probe. Master mixes for each probe were prepared corresponding to 10 μL of Applied Biosystems TaqMan Universal PCR Master Mix (ThermoFisher Scientific, Waltham, Mass., USA), 1 μL of primer, and nuclease-free water corresponding to a volume providing 20 μL reactions when loading an average of 50 ng of cDNA. Quantitative real-time PCR was run with the following thermal cycling protocol: 50° C. for 2 min., 95° C. for 10 min., and 40 cycles of 95° C. for 15 seconds, 60° C. for 1 min., then fluorescence reading. The following FAM probes were purchased from Life Technologies (Carlsbad, Calif., USA): mouse GAPDH, Mm99999915_g1; mouse Gli1, Mm00494646_g1; mouse Ptch1, Mm01306905_m1.
(§6) Quantitative real-time PCR data for Hh signaling inhibition was quantitated using the ΔΔCt method. Control probe values were subtracted from probe of interest values to arrive at the ΔCt value. The ΔCt value was transformed by 2-^ΔCt to arrive at the ΔΔCt value. All ΔΔCt values were divided by the average negative control ΔΔCt value to provide percent Hh signaling activity. Percent inhibition values were derived by calculating the inverse of percent activity. Data is reported as mean±standard error of the mean (SEM), representing at least two biological replicates, each quantitated in triplicate.

[1] = Lipophilic efficiency (LipE = pEC50 − cLogP) and cLogP
Experimental: Therefore, we prioritized phenotypic analog evaluation in the Gli-responsive luciferase reporter line TM3-Gli-Luc stimulated with 20 nM Smo agonist (SAG) while concurrently monitoring non-specific cellular toxicity. Additionally, lipophilic efficiency (LipE), a concurrent readout of a compound's potency (pEC50) and lipophilicity (cLogP) derived by subtracting the latter from the former, was utilized to optimize solubility properties (Table 12B), allowing for straightforward tracking of compounds with improvements in both parameters.

[2] = molecular target: T1, Smo cyclopamine (Cyc) binding site (Homo sapiens, UniProt Q99835); assay: BODIPY-cyclopamine competition in HEK-293T cells overexpressing Smo
T1 construct: expressed in transfected cells; host or cells: HEK-293T
Experimental: Thus, HEK-293T cells overexpressing Smo were concurrently treated with 5 nM BODIPY-Cyc and molecules of interest.

[3] = tested on: Hedgehog signaling (TM3-Gli-Luc); assay: TM3-Gli-Luc luciferase reporter assay stimulated with 20 nM SAG; type: cell-based
Method in brief: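 Luciferase read-out divided by CellTiter-Glo viability, minus DMSO/no-SAG baseline, expressed relative to 20 nM SAG alone. Cells exposed to compound with SAG for 48 h at 37 °C in 2.5% FBS DMEM/F12 on gelatin. EC50 ±SEM from at least two separate-day runs.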

PKA activation = assay: Immunostaining of autophosphorylated PKA catalytic subunit in NIH3T3 cells; type: cell-based; conditions: SAG-stimulated NIH3T3 cells, Egm 5 μM, Rolipram 10 μM
Experimental: NIH3T3 cells were plated on Poly-D-Lysine-coated glass coverslips and were cultured at 37° C., 5% CO2 in DMEM medium containing 10% fetal bovine serum until reaching 75% confluency. For one set of experiments, cells were then transfected with VSV-tagged PDE4D3 plasmid (gift from Miles Houslay, University of Glasgow, Scotland, UK) using Fugene6 transfection reagent (Roche, Indianapolis, Ind.) per manufacturer's protocol. Afterward, cell medium was replaced with DMEM/0.5% FBS containing either 5 μM eggmanone or DMSO and incubated overnight at 37° C., 5% CO2. Cells were fixed in 4% PFA at room temperature for 10 minutes prior to permeabilization, blocking, and staining with primary antibodies against Arl13b (gift of Tamary Caspary, Emory University, Atlanta, Ga.) and VSV (AbCam, Cambridge, Mass.). Fluorescent immunocytochemistry was performed using species-specific, secondary antibodies (Jackson Immunoresearch, West Grove, Pa.). For additional immunocytochemistry experiment, cells were treated with 20 nM SAG in the presence or absence of 5 uM Eggmanone. After overnight incubation, cells were washed with PBS, fixed for 10 minutes in 4% PFA, permeabilized 20 minutes at −20C with cold methanol, blocked with PBS/1% BSA, and incubated with primary antibodies to phospho-PKA catalytic domain Thr197 (Cell Signaling, Danvers, Mass.) and then to Arl13b. An additional overnight blocking step using unconjugated rabbit IgG was required between primary antibody incubations since both antibodies were produced in rabbit. Fluorescent conjugated secondary antibodies were used for visualization. Data analysis was performed in part through the use of the VUMC Cell Imaging Shared Resource.
Using ImageJ software (National Institutes of Health, developed by W. Rasband), a region of interest was created using the magic wand tool on Arl13b channel and transposed to the Gli2 channel, and integrated density was measured and reported as arbitrary units (a.u.). For phospho-PKA, using ImageJ, a line selection tool was used to select a line projected through the length of the primary cilia and an equal length beyond. The intensity values were potted and the cumulative florescence (area under the curve) was calculated for three cilia, blindly, for each treatment. These values for cilia and pericilia domain were analyzed by a two tailed students t-test. For correlation analysis, correlation coefficient for intensity of gamma-tubulin and phosphor-PKA were calculated and compared among treatments with students t-test.

Ptch1 transcription = assay: Sufu−/− mouse embryonic fibroblasts qRT-PCR; type: cell-based; conditions: for inhibition at 10 µM: Mus musculus, Fibroblast, read-out: Sufu Null (Ptc) % Inh., 10 μM
Excerpt: as §1, §2, §3, §4, §5, §6

Gli1 mRNA = assay: Hh % Inh.: SAG-induced Gli1 expression in C3H10T½ cells (qPCR); type: cell-based; conditions: Mus musculus, C3H 10T1/2, SAG-induced (100 nM), 24 hours; for inhibition at 1 µM: 1 pM [sic], read-out: C3H10T1/2 qPCR, Gh1 mRNA % Inh., 1 pM; for inhibition at 10 µM: 10 pM [sic], read-out: C3H10T1/2 qPCR, Gh1 mRNA % Inh., 10 pM; for EC50: read-out: C3H10T1/2 qPCR, Gh1 mRNA EC50
Experimental: Compounds are dosed from 10 mM DMSO stock solutions, and mRNA is isolated after 24 hours of compound treatment. mRNA is reverse transcribed to produce cDNA which is quantified by quantitative polymerase chain reaction (qPCR) in triplicate and levels are normalized to GAPDH levels. Data is presented as percent inhibition compared to positive control (SAG).

zebrafish embryos = assay: Zebrafish embryo phenotypic assay (ZF); type: in vivo; conditions: wild-type embryonic zebrafish, dosed 5 hpf
Method in brief: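 Phenotype scored by gross morphology at 24, 48 and 72 hours post-fertilization. Compound added at 5 hpf, from 1 mM or 10 mM stocks in DMSO, to about 10 wild-type AB embryos in E3 water. In the original screen, 5 μM final was applied near 4 hpf at 28.5 °C.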

[4] = TM3-Gli-Luc reporter line stimulated with 20 nM SAG, mean ± SEM, Table 14, read-out: TM3-Gli-Luc EC50
[5] = Table 9A, read-out: TM3 G8 Luciferase EC 50
[6] = Calculated as pEC50 - cLogP, Molinspiration Cheminformatics
[7] = 20 nM SAG, mean ± standard error of the mean, read-out: TM3-Gli-Luc EC50

T1 sequence (Q99835 28-787): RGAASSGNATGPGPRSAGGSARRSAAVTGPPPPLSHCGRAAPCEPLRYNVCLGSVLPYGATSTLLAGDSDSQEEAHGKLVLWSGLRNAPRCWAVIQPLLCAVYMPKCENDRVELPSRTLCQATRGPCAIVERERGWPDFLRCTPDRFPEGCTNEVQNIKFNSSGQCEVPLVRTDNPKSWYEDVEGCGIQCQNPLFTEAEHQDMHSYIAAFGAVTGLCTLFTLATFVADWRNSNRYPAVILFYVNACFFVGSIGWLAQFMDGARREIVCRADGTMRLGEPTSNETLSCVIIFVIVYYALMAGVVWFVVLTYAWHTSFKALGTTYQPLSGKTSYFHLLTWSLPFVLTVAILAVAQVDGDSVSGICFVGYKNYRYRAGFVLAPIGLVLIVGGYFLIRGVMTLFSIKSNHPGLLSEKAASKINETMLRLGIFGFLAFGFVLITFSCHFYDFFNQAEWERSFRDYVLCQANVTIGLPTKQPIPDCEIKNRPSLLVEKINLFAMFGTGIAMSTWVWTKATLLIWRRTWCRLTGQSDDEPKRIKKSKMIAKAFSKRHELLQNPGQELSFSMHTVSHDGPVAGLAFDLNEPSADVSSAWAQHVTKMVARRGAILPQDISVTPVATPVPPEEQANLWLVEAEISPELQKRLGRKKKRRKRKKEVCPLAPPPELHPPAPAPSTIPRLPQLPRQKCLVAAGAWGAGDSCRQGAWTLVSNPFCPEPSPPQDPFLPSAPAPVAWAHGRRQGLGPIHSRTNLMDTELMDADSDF

SMILES	inhibition at 10 µM (Ptch1 transcription)	EC50 [3, 5]	inhibition at 1 µM (Gli1 mRNA)	inhibition at 10 µM (Gli1 mRNA)	EC50 (Gli1 mRNA)	also measured
O=C(CSc1nc2sccc2c(=O)n1C1CC1)c1cccs1 [Formula 19b]						Transcriptional inhibition in the Sufu−/− cell line, in words (Gli1 transcription): lack of Sufu−/− transcriptional inhibition; LipE ([1]; calculated as pEC50 - cLogP (Molinspiration Cheminformatics), Table 13): 2.89; LipE ([1]; pEC50 - cLogP, Table 14): 2.89; Displacement of BODIPY-cyclopamine (5 nM) from Smo ([2]; KAAD-Cyc 200 nM, analogs at 10- to 20-fold their EC50s): do not displace the binding of BODIPY-cyclopamine; also recorded: failed to compete for the Smo binding site; EC50 ([3]; TM3-Gli-Luc reporter line stimulated with 20 nM SAG, mean ± SEM, Table 13, read-out: TM3-Gli-Luc EC50): 933 ± 100 nM; EC50 [3, 4]: 933 ± 100 nM
CC1=C2C[C@H]3[C@@H](CC=C4CC(=O)CC[C@@]43C)[C@@H]2CC[C@]12O[C@@H]1C[C@H](C)CN(CCNC(=O)CCCCCNC(=O)CCc3ccccc3)[C@H]1[C@H]2C [KAAD-Cyc, KAAD-cyclopamine, reference compound]						Displacement of BODIPY-cyclopamine (5 nM) from Smo [2]: completely displaced BODIPY-Cyc
CCCC(=O)Nc1ncnc2c1ncn2[C@@H]1O[C@@H]2COP(=O)(O)O[C@H]2[C@H]1OC(=O)CCC [dibutyril cAMP (DBA), dibutyril cAMP, reference compound]						PKA activation (phospho-PKA-C staining), spatial distribution (PKA activation): induce spatially localized PKA activation in the basal body; PKA activation (phospho-PKA-C staining), spatial distribution (PKA activation; listed as dibutyril cAMP): more diffuse increase in phospho-PKA staining
CCCn1c(SCC(=O)c2cccs2)nc2sc3c(c2c1=O)CCCC3 [JEH-3-087-2]	12.1%	1580 nM	64.2%	101%	789 nM	
C=C(C)Cn1c(SCC(=O)N2CCCCC2C)nc2sc3c(c2c1=O)CCCC3 (stereo not drawn) [JEH-3-069-2]	77.6%	2500 nM	38.6%	97.6%	2740 nM	
O=C(CSc1nc2sc3c(c2c(=O)n1C1CC1)CCCC3)c1cccs1 [Formula 9b]						Transcriptional inhibition in the Sufu−/− cell line, in words (Gli1 transcription): general ability to inhibit transcriptional activity; LipE [1, 6]: 1.40; LipE ([1]; pEC50 - cLogP, Table 14): 1.40; EC50 [3, 7]: 1890 ± 750 nM; EC50 [3, 4]: 1890 ± 750 nM
Cc1c(C(=O)Nc2ccc(N3C[C@@H](C)O[C@@H](C)C3)nc2)cccc1-c1ccc(OC(F)(F)F)cc1 [Sonidegib, reference compound]						inhibition of Ptch1 transcription (Ptch1 transcription; 0.1 μM): failed to inhibit transcription; inhibition of Gli1 transcription (Gli1 transcription; 0.1 μM): failed to inhibit transcription; LipE [1, 6]: 3.02; LipE ([1]; pEC50 - cLogP, Table 14): 3.02; Hh inhibitory activity / potency in words ([3]; 20 nM SAG): displayed expected potency; Hh inhibitory activity / potency in words ([3]; 20 nM SAG, listed as 2): low-nanomolar; EC50 [3, 7]: 1.2 ± 0.2 nM; EC50 [3, 4]: 1.2 ± 0.2 nM
O=C(CSc1nc2sc3c(c2c(=O)n1C1CC1)CCCC3)c1ccccc1 [JEH-1-163-1]	41.9%	1960 nM				ZF Phenotype EC100 (zebrafish embryos): 0.81 µM
C=C(C)Cn1c(SCC(=O)N2CCCCC2)nc2sc3c(c2c1=O)CCCC3 [JEH-3-048-3]	-13.7%	6310 nM	33.8%	98.6%		
CCn1c(SCC(=O)c2cccs2)nc2sc3c(c2c1=O)CCCC3 [JEH-3-087-1]	21.6%	12000 nM	39.5%	96.1%	1370 nM	
C=C(C)Cn1c(SCC(=O)c2cccn2C)nc2sc3c(c2c1=O)CCCC3 [JEH-3-077]	52.1%		47.1%	89.1%	1130 nM	
